This note sets out measurements from patent US7803769B2 (priority 2006, dated 2010).

In one experiment the target is T1, human Kv1.3 (CHO) (Homo sapiens, UniProt P22001).
T1 construct: expressed in transfected cells
Description: cell-based.

The next experiment has as its target T2, human Kv1.1 (HEK293) (Homo sapiens, UniProt Q09470).
T2 construct: expressed in transfected cells; host or cells: HEK293
Description: cell-based.

The structures appear in SMILES notation. Bridge positions count the residues as written; N and C are the ends. Square brackets hold non-standard residues; d marks the D form. Peptide text beside a SMILES is read from it. 1Nal = N[C@@H](Cc1cccc2ccccc12)C(=O)O

T1 sequence (P22001 whole entry): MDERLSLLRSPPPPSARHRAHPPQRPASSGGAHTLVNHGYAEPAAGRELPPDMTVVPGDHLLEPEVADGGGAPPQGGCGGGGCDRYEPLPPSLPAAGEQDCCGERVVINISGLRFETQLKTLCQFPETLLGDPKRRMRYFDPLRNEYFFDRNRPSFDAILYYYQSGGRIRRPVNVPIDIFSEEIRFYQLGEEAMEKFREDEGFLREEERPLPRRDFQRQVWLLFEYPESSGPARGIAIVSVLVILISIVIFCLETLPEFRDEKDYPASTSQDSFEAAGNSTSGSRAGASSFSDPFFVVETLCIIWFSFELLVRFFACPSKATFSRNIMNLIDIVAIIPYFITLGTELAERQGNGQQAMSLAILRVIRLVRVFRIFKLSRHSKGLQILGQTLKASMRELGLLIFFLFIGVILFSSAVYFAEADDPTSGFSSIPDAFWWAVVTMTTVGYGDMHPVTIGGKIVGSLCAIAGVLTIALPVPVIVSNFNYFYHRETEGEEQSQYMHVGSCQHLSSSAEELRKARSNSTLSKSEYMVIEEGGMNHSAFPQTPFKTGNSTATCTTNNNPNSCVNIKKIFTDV
T2 sequence (Q09470 whole entry): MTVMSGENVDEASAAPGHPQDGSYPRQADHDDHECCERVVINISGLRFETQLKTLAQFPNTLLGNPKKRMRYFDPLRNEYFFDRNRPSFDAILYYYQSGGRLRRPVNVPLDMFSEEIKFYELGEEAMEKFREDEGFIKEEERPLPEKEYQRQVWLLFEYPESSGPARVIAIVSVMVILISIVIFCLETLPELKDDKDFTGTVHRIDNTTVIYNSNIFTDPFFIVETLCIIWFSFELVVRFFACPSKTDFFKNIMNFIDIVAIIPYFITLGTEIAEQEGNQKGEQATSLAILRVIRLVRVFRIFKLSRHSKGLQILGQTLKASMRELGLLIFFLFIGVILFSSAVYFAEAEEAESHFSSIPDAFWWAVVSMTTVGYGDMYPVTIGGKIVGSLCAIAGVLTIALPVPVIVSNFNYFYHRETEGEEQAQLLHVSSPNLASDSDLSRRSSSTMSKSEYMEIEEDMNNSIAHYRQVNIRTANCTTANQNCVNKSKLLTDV

As usually defined, the IC50 is the point on the concentration scale where inhibition reaches its midpoint. The low end stands for inhibition by little substance, the high end for a need for much substance. Turning to `CC[C@H](C)[C@@H]1NC(=O)[C@H](CCCCN)NC(=O)[C@@H](NC(=O)[C@H](CCCCN)NC(=O)[C@@H](NC(=O)[C@H](CC(N)=O)NC(=O)[C@@H](NC(=O)[C@@H](NC(=O)[C@@H](NC(=O)CN)C(C)C)[C@@H](C)CC)[C@@H](C)CC)C(C)C)CSSC[C@@H]2NC(=O)[C@H](CCCCN)NC(=O)CNC(=O)[C@H](Cc3ccccc3)NC(=O)[C@H](CCCNC(=N)N)NC(=O)[C@H](CCSC)NC(=O)CNC(=O)[C@H](C)NC(=O)[C@H](CCCCN)NC(=O)[C@H](CCCCN)NC(=O)[C@@H]3CSSC[C@@H](C(=O)N[C@H](C(=O)N4CCC[C@H]4C(=O)N[C@@H](CCCCN)C(=O)O)[C@@H](C)O)NC(=O)[C@H](Cc4c[nH]cn4)NC(=O)[C@H](CSSC[C@H](NC(=O)[C@H](CCC(N)=O)NC(=O)[C@H](CCCNC(=N)N)NC(=O)[C@H](CO)NC1=O)C(=O)N[C@@H](CC(C)C)C(=O)N[C@@H](CCC(=O)O)C(=O)N1CCC[C@H]1C(=O)N3)NC(=O)[C@H](CCCCN)NC(=O)[C@H](Cc1cccc3ccccc13)NC(=O)[C@H](CC(N)=O)NC(=O)[C@H](CCSC)NC2=O` [G31Nal] (H-GVIINVKCKISRQCLEPCKKAGMRFGKCMN[1Nal]KCHCTPK-OH; disulfide 8-28, 14-33, 18-35), the IC50 against human Kv1.3 (CHO) is 0.0338 nM; against human Kv1.1 (HEK293), under 0.00152 nM.

Turning to `CC[C@H](C)[C@@H]1NC(=O)[C@H](CCCCN)NC(=O)[C@@H](NC(=O)[C@H](CCCCN)NC(=O)[C@@H](NC(=O)[C@H](CC(N)=O)NC(=O)[C@@H](NC(=O)[C@@H](NC(=O)[C@@H](NC(=O)CN)C(C)C)[C@@H](C)CC)[C@@H](C)CC)C(C)C)CSSC[C@@H]2NC(=O)[C@H](CCCCN)NC(=O)CNC(=O)[C@H](Cc3ccccc3)NC(=O)[C@H](CCCNC(=N)N)NC(=O)[C@H](CCSC)NC(=O)[C@H](Cc3cccc4ccccc34)NC(=O)[C@H](C)NC(=O)[C@H](CCCCN)NC(=O)[C@H](CCCCN)NC(=O)[C@@H]3CSSC[C@@H](C(=O)N[C@H](C(=O)N4CCC[C@H]4C(=O)N[C@@H](CCCCN)C(=O)O)[C@@H](C)O)NC(=O)[C@H](Cc4c[nH]cn4)NC(=O)[C@H](CSSC[C@H](NC(=O)[C@H](CCC(N)=O)NC(=O)[C@H](CCCNC(=N)N)NC(=O)[C@H](CO)NC1=O)C(=O)N[C@@H](CC(C)C)C(=O)N[C@@H](CCC(=O)O)C(=O)N1CCC[C@H]1C(=O)N3)NC(=O)[C@H](CCCCN)NC(=O)CNC(=O)[C@H](CC(N)=O)NC(=O)[C@H](CCSC)NC2=O` [G22Nal] (H-GVIINVKCKISRQCLEPCKKA[1Nal]MRFGKCMNGKCHCTPK-OH; disulfide 8-28, 14-33, 18-35), the figures for the IC50 at human Kv1.3 (CHO) and at human Kv1.1 (HEK293) were over 3.33 nM and 0.426 nM, respectively.

In the case of `CC[C@H](C)[C@@H]1NC(=O)[C@H](CCCCN)NC(=O)[C@@H](NC(=O)[C@H](CCCCN)NC(=O)[C@H](CCCNC(=N)N)NC(=O)[C@H](CC(N)=O)NC(=O)[C@@H](NC(=O)[C@@H](NC(=O)[C@@H](NC(=O)CN)C(C)C)[C@@H](C)CC)[C@@H](C)CC)CSSC[C@@H]2NC(=O)[C@H](CCCCN)NC(=O)CNC(=O)[C@H](Cc3ccccc3)NC(=O)[C@H](CCCNC(=N)N)NC(=O)[C@H](CCSC)NC(=O)CNC(=O)[C@H](C)NC(=O)[C@H](CCCCN)NC(=O)[C@H](CCCCN)NC(=O)[C@@H]3CSSC[C@@H](C(=O)N[C@H](C(=O)N4CCC[C@H]4C(=O)N[C@@H](CCCCN)C(=O)O)[C@@H](C)O)NC(=O)[C@H](Cc4c[nH]cn4)NC(=O)[C@H](CSSC[C@H](NC(=O)[C@H](CCC(N)=O)NC(=O)[C@H](CCCNC(=N)N)NC(=O)[C@H](CO)NC1=O)C(=O)N[C@@H](CC(C)C)C(=O)N[C@@H](CCC(=O)O)C(=O)N1CCC[C@H]1C(=O)N3)NC(=O)[C@H](CCCCN)NC(=O)CNC(=O)[C@H](CC(N)=O)NC(=O)[C@H](CCSC)NC2=O` [V6R] (H-GVIINRKCKISRQCLEPCKKAGMRFGKCMNGKCHCTPK-OH; disulfide 8-28, 14-33, 18-35), the IC50 against human Kv1.3 (CHO) was 0.00865 nM; against human Kv1.1 (HEK293), 0.0024 nM.

Consider `CC[C@H](C)[C@@H]1NC(=O)[C@H](CCCCN)NC(=O)[C@@H](NC(=O)[C@H](CCCCN)NC(=O)[C@@H](NC(=O)[C@H](CC(N)=O)NC(=O)[C@@H](NC(=O)[C@@H](NC(=O)[C@@H](NC(=O)CN)C(C)C)[C@@H](C)CC)[C@@H](C)CC)C(C)C)CSSC[C@@H]2NC(=O)[C@H](CCCCN)NC(=O)CNC(=O)[C@H](Cc3ccccc3)NC(=O)[C@H](CCCNC(=N)N)NC(=O)[C@H](CCSC)NC(=O)CNC(=O)[C@H](C)NC(=O)[C@H](CCCCN)NC(=O)[C@H](CCCCN)NC(=O)[C@@H]3CSSC[C@@H](C(=O)N[C@H](C(=O)N4CCC[C@H]4C(=O)N[C@@H](CCCCN)C(=O)O)[C@@H](C)O)NC(=O)[C@H](Cc4c[nH]cn4)NC(=O)[C@H](CSSC[C@H](NC(=O)[C@H](CCC(N)=O)NC(=O)[C@H](CCCNC(=N)N)NC(=O)[C@H](CO)NC1=O)C(=O)N[C@@H](CC(C)C)C(=O)N[C@@H](CCC(=O)O)C(=O)N1CCC[C@H]1C(=O)N3)NC(=O)[C@H](CCCCN)NC(=O)CNC(=O)[C@H](CC(N)=O)NC(=O)[C@H](Cc1cccc3ccccc13)NC2=O` [M29Nal] (H-GVIINVKCKISRQCLEPCKKAGMRFGKC[1Nal]NGKCHCTPK-OH; disulfide 8-28, 14-33, 18-35), for which the IC50 against human Kv1.3 (CHO) turned out to be 0.0935 nM; against human Kv1.1 (HEK293), 0.0469 nM.

`CC[C@H](C)[C@@H]1NC(=O)[C@H](CCCCN)NC(=O)[C@@H](NC(=O)[C@H](CCCCN)NC(=O)[C@@H](NC(=O)[C@H](CC(N)=O)NC(=O)[C@@H](NC(=O)[C@@H](NC(=O)[C@@H](NC(=O)CN)C(C)C)[C@@H](C)CC)[C@@H](C)CC)C(C)C)CSSC[C@@H]2NC(=O)[C@H](CCCCN)NC(=O)CNC(=O)[C@H](Cc3ccccc3)NC(=O)[C@H](CCCNC(=N)N)NC(=O)[C@H](CCSC)NC(=O)CNC(=O)[C@H](C)NC(=O)[C@H](CCCCN)NC(=O)[C@H](CCCCN)NC(=O)[C@@H]3CSSC[C@@H](C(=O)N[C@H](C(=O)N4CCC[C@H]4C(=O)N[C@@H](CCCCN)C(=O)O)[C@@H](C)O)NC(=O)[C@H](Cc4c[nH]cn4)NC(=O)[C@H](CSSC[C@H](NC(=O)[C@H](Cc4cccc5ccccc45)NC(=O)[C@H](CCCNC(=N)N)NC(=O)[C@H](CO)NC1=O)C(=O)N[C@@H](CC(C)C)C(=O)N[C@@H](CCC(=O)O)C(=O)N1CCC[C@H]1C(=O)N3)NC(=O)[C@H](CCCCN)NC(=O)CNC(=O)[C@H](CC(N)=O)NC(=O)[C@H](CCSC)NC2=O` [Q13Nal] (H-GVIINVKCKISR[1Nal]CLEPCKKAGMRFGKCMNGKCHCTPK-OH; disulfide 8-28, 14-33, 18-35): the IC50 at human Kv1.3 (CHO) is 0.0134 nM; at human Kv1.1 (HEK293) it was under 0.00152 nM.

For the molecule `CC[C@H](C)[C@@H]1NC(=O)[C@H](CCCCN)NC(=O)[C@@H](NC(=O)[C@H](CCCCN)NC(=O)[C@@H](NC(=O)[C@H](CC(N)=O)NC(=O)[C@@H](NC(=O)[C@@H](NC(=O)[C@@H](NC(=O)CN)C(C)C)[C@@H](C)CC)[C@@H](C)CC)C(C)C)CSSC[C@@H]2NC(=O)[C@H](CCCCN)NC(=O)CNC(=O)[C@H](Cc3ccccc3)NC(=O)[C@H](CCCNC(=N)N)NC(=O)[C@H](Cc3cccc4ccccc34)NC(=O)CNC(=O)[C@H](C)NC(=O)[C@H](CCCCN)NC(=O)[C@H](CCCCN)NC(=O)[C@@H]3CSSC[C@@H](C(=O)N[C@H](C(=O)N4CCC[C@H]4C(=O)N[C@@H](CCCCN)C(=O)O)[C@@H](C)O)NC(=O)[C@H](Cc4c[nH]cn4)NC(=O)[C@H](CSSC[C@H](NC(=O)[C@H](CCC(N)=O)NC(=O)[C@H](CCCNC(=N)N)NC(=O)[C@H](CO)NC1=O)C(=O)N[C@@H](CC(C)C)C(=O)N[C@@H](CCC(=O)O)C(=O)N1CCC[C@H]1C(=O)N3)NC(=O)[C@H](CCCCN)NC(=O)CNC(=O)[C@H](CC(N)=O)NC(=O)[C@H](CCSC)NC2=O` [M23Nal] (H-GVIINVKCKISRQCLEPCKKAG[1Nal]RFGKCMNGKCHCTPK-OH; disulfide 8-28, 14-33, 18-35), the IC50 at human Kv1.3 (CHO) was 0.036 nM; on human Kv1.1 (HEK293) it was 0.0644 nM.

As to `CC[C@H](C)[C@@H]1NC(=O)[C@H](CCCCN)NC(=O)[C@@H](NC(=O)[C@H](CCCCN)NC(=O)[C@@H](NC(=O)[C@H](CC(N)=O)NC(=O)[C@@H](NC(=O)[C@@H](NC(=O)[C@@H](NC(=O)CN)C(C)C)[C@@H](C)CC)[C@@H](C)CC)C(C)C)CSSC[C@@H]2NC(=O)[C@H](CCCCN)NC(=O)[C@H](Cc3cccc4ccccc34)NC(=O)[C@H](Cc3ccccc3)NC(=O)[C@H](CCCNC(=N)N)NC(=O)[C@H](CCSC)NC(=O)CNC(=O)[C@H](C)NC(=O)[C@H](CCCCN)NC(=O)[C@H](CCCCN)NC(=O)[C@@H]3CSSC[C@@H](C(=O)N[C@H](C(=O)N4CCC[C@H]4C(=O)N[C@@H](CCCCN)C(=O)O)[C@@H](C)O)NC(=O)[C@H](Cc4c[nH]cn4)NC(=O)[C@H](CSSC[C@H](NC(=O)[C@H](CCC(N)=O)NC(=O)[C@H](CCCNC(=N)N)NC(=O)[C@H](CO)NC1=O)C(=O)N[C@@H](CC(C)C)C(=O)N[C@@H](CCC(=O)O)C(=O)N1CCC[C@H]1C(=O)N3)NC(=O)[C@H](CCCCN)NC(=O)CNC(=O)[C@H](CC(N)=O)NC(=O)[C@H](CCSC)NC2=O` [G26Nal] (H-GVIINVKCKISRQCLEPCKKAGMRF[1Nal]KCMNGKCHCTPK-OH; disulfide 8-28, 14-33, 18-35), the IC50 at human Kv1.3 (CHO) is over 3.33 nM; at human Kv1.1 (HEK293), 1.57 nM.

For the molecule `CC[C@H](C)[C@@H]1NC(=O)[C@H](CCCCN)NC(=O)[C@@H](NC(=O)[C@H](CCCCN)NC(=O)[C@@H](NC(=O)[C@H](CC(N)=O)NC(=O)[C@@H](NC(=O)[C@@H](NC(=O)[C@@H](NC(=O)CN)C(C)C)[C@@H](C)CC)[C@@H](C)CC)C(C)C)CSSC[C@@H]2NC(=O)[C@H](CCCCN)NC(=O)CNC(=O)[C@H](Cc3ccccc3)NC(=O)[C@H](CCCNC(=N)N)NC(=O)[C@H](CCSC)NC(=O)CNC(=O)[C@H](C)NC(=O)[C@H](CCCCN)NC(=O)[C@H](Cc3cccc4ccccc34)NC(=O)[C@@H]3CSSC[C@@H](C(=O)N[C@H](C(=O)N4CCC[C@H]4C(=O)N[C@@H](CCCCN)C(=O)O)[C@@H](C)O)NC(=O)[C@H](Cc4c[nH]cn4)NC(=O)[C@H](CSSC[C@H](NC(=O)[C@H](CCC(N)=O)NC(=O)[C@H](CCCNC(=N)N)NC(=O)[C@H](CO)NC1=O)C(=O)N[C@@H](CC(C)C)C(=O)N[C@@H](CCC(=O)O)C(=O)N1CCC[C@H]1C(=O)N3)NC(=O)[C@H](CCCCN)NC(=O)CNC(=O)[C@H](CC(N)=O)NC(=O)[C@H](CCSC)NC2=O` [K19Nal] (H-GVIINVKCKISRQCLEPC[1Nal]KAGMRFGKCMNGKCHCTPK-OH; disulfide 8-28, 14-33, 18-35), the IC50 against human Kv1.3 (CHO) is 0.0172 nM; against human Kv1.1 (HEK293), under 0.00152 nM.
